Assay results published in patent US8536172B2, “Inhibitors of JNK” (Roche Palo Alto LLC, priority 2009, dated 2013).

Experiments:
Human JNK1α1 = Human JNK1α1 (Homo sapiens (Human), UniProt P45983); assay: JNK assay in vitro: phosphorylation of GST-ATF2 (19-96) with [γ-33P] ATP, JNK1; format: biochemical; details: 2 nM enzyme, 1 μM ATF2, 6 μM ATP (Km), 30° C. 30 min
Protocol: JNK activity was measured by phosphorylation of GST-ATF2 (19-96) with [γ-^33P] ATP. […] Human JNK2α2 assay contains 1 nM enzyme, 1 μM ATF2, 8 μM ATP with 1 uCi [γ-^33P] ATP. Human JNK1α1 assay contains 2 nM enzyme, 1 μM ATF2, 6 μM ATP with 1 μCi [γ-^33P] ATP. […] ATP. The enzyme assay was carried out in the presence or absence of several compound concentrations. JNK and compound were pre-incubated for 10 min., followed by initiation of the enzymatic reaction by adding ATP and the substrate. The reaction mixture was incubated at 30° C. for 30 min. […] The incorporation of ^33P into ATF2 was quantified on a microplate scintillation counter (Packard Topcount). Compound inhibition potency on JNK was measured by IC50 value generated from ten concentration inhibition curves fitted into the 3-parameter model: % inhibition=Maximum/(1+(IC50/[Inhibitor])^slope). Data were analyzed on Microsoft Excel for parameter estimation.

Human JNK2α2 = Human JNK2α2 (Homo sapiens (Human), UniProt P45984); assay: JNK assay in vitro: phosphorylation of GST-ATF2 (19-96) with [γ-33P] ATP, JNK2; format: biochemical; details: 1 nM enzyme, 1 μM ATF2, 8 μM ATP (Km), 30° C. 30 min
Protocol: JNK activity was measured by phosphorylation of GST-ATF2 (19-96) with [γ-^33P] ATP. […] Human JNK2α2 assay contains 1 nM enzyme, 1 μM ATF2, 8 μM ATP with 1 uCi [γ-^33P] ATP. Human JNK1α1 assay contains 2 nM enzyme, 1 μM ATF2, 6 μM ATP with 1 μCi [γ-^33P] ATP. Human JNK3 (Upstate Biotech #14-501M) assay contains 2 nM enzyme, 1 μM ATF2, 4 μM ATP with 1 μCi [γ-^33P] ATP. The enzyme assay was carried out in the presence or absence of several compound concentrations. JNK and compound were pre-incubated for 10 min., followed by initiation of the enzymatic reaction by adding ATP and the substrate. The reaction mixture was incubated at 30° C. for 30 min. At the end of incubation, the reaction was terminated by transferring 25 μl of the reaction mixture to 150 μl of 10% glutathione Sepharose® slurry (Amersham #27-4574-01) containing 135 mM EDTA. The reaction product was captured on the affinity resin, and washed on a filtration plate (Millipore, MABVNOB50) with phosphate buffered saline for six times to remove free radionucleotide. The incorporation of ^33P into ATF2 was quantified on a microplate scintillation counter (Packard Topcount). Compound inhibition potency on JNK was measured by IC50 value generated from ten concentration inhibition curves fitted into the 3-parameter model: % inhibition=Maximum/(1+(IC50/[Inhibitor])^slope). Data were analyzed on Microsoft Excel for parameter estimation.

Chain of Human JNK1α1 (P45983 other isoform, or with tags, fused parts or gaps): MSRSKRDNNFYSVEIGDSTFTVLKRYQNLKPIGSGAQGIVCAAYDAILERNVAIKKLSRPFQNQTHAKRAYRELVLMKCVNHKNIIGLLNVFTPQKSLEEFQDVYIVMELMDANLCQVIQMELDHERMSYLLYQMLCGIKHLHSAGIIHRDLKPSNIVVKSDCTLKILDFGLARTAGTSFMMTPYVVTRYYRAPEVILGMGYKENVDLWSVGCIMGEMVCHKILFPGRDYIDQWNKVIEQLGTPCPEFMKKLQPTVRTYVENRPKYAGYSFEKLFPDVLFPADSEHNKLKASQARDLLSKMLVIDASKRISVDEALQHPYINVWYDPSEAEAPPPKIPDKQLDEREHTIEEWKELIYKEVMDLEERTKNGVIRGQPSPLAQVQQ
Chain of Human JNK2α2 (P45984 whole entry): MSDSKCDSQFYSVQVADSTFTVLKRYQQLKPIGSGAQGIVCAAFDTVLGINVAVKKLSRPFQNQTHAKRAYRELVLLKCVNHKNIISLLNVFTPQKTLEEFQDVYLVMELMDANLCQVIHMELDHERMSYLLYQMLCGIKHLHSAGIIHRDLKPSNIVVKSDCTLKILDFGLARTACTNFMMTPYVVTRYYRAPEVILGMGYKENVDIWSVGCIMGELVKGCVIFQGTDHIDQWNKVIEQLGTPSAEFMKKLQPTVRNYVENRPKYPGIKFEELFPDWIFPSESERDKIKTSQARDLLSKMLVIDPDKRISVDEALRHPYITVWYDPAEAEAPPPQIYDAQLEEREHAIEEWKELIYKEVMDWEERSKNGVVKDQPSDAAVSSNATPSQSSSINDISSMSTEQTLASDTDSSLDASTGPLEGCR

Structure (SMILES) | IC50 (Human JNK1α1) [nM] | IC50 (Human JNK2α2) [nM]
CC(=O)N1CCN(c2cccc3c2ccn3-c2ccnc(N[C@H]3CC[C@H](CS(C)(=O)=O)CC3)n2)CC1 [Compound I-41, 1-(4-{1-[2-(4-Methanesulfonylmethyl-cyclohexylamino)-pyrimidin-4-yl]-1H-indol-4-yl}-piperazin-1-yl)-ethanone] | 25 | 164
CS(=O)(=O)N[C@H]1CC[C@H](Nc2nccc(-n3ccc4c(N5CCC(S(C)(=O)=O)CC5)cccc43)n2)CC1 [Compound I-6, N-(4-{4-[4-(4-Methanesulfonyl-piperidin-1-yl)-indol-1-yl]-pyrimidin-2-ylamino}-cyclohexyl)-methanesulfonamide] | 3 | 23.5
CS(=O)(=O)N[C@H]1CC[C@H](Nc2nccc(-n3ccc4c(N5CCC(O)CC5)cccc43)n2)CC1 [Compound I-4, N-(4-{4-[4-(4-Hydroxy-piperidin-1-yl)-indol-1-yl]-pyrimidin-2-ylamino}-cyclohexyl)-methanesulfonamide] | 42.9 | 292
N#CCC(=O)N1CCN(c2cccc3c2ccn3-c2ccnc(N[C@H]3CC[C@H](CN4CC[C@@H](O)C4)CC3)n2)CC1 [Compound I-25, 3-[4-(1-{2-[4-((R)-3-Hydroxy-pyrrolidin-1-ylmethyl)-cyclohexylamino]-pyrimidin-4-yl}-1H-indol-4-yl)-piperazin-1-yl]-3-oxo-propionitrile] | 4.2 | 25.6
CN(C)S(=O)(=O)N[C@H]1CC[C@H](Nc2nccc(-n3ccc4c(N5CCC(S(C)(=O)=O)CC5)cccc43)n2)CC1 [Compound I-15, [4-{4-[4-(4-Methanesulfonyl-piperidin-1-yl)-indol-1-yl]-pyrimidin-2-ylamino}-cyclohexyl]aminodimethylsulfonamide] | 3.6 | 20.8
CC(C)(O)[C@H]1CC[C@H](Nc2nccc(-n3ccc4c(N5CCC(S(C)(=O)=O)CC5)cccc43)n2)CC1 [Compound I-14, 2-(4-{4-[4-(4-Methanesulfonyl-piperidin-1-yl)-indol-1-yl]-pyrimidin-2-ylamino}-cyclohexyl)-propan-2-ol] | 3 | 19.2
CC(=O)OCC(=O)N1CCN(c2cccc3c2ccn3-c2ccnc(N[C@H]3CC[C@H](NS(C)(=O)=O)CC3)n2)CC1 [Compound I-10, Acetic acid 2-(4-{1-[2-(4-methanesulfonylamino-cyclohexylamino)-pyrimidin-4-yl]-1H-indol-4-yl}-piperazin-1-yl)-2-oxo-ethyl ester] | 10.4 | 74.9
CN(C)CCN([C@H]1CC[C@H](Nc2nccc(-n3ccc4c(N5CCN(C(=O)CC#N)CC5)cccc43)n2)CC1)S(C)(=O)=O [Compound I-26, N-[4-(4-{4-[4-(2-Cyano-acetyl)-piperazin-1-yl]-indol-1-yl}-pyrimidin-2-ylamino)-cyclohexyl]-N-(2-dimethylamino-ethyl)-methanesulfonamide] | 3.7 | 24.6
N#CCC(=O)O[C@H]1CCC[C@H](Nc2nccc(-n3ccc4c(N5CCN(C(=O)CC#N)CC5)cccc43)n2)C1 [Compound I-36, Cyano-acetic acid (1S,3S)-3-(4-{4-[4-(2-cyano-acetyl)-piperazin-1-yl]-indol-1-yl}-pyrimidin-2-ylamino)-cyclohexyl ester] | – | 168
CC(=O)N[C@H]1CC[C@H](Nc2nccc(-n3ccc4c(N5CCC(S(C)(=O)=O)CC5)cccc43)n2)CC1 [Compound I-13, N-(4-{4-[4-(4-Methanesulfonyl-piperidin-1-yl)-indol-1-yl]-pyrimidin-2-ylamino}-cyclohexyl)-acetamide] | 6.6 | 49.3
CC(=O)N1CCN(c2cccc3c2ccn3-c2ccnc(N[C@H]3CC[C@H](C(=O)N4CCC(O)CC4)CC3)n2)[C@H](C)C1 [Compound I-21, 1-[(R)-4-(1-{2-[4-(4-Hydroxy-piperidine-1-carbonyl)-cyclohexylamino]-pyrimidin-4-yl}-1H-indol-4-yl)-3-methyl-piperazin-1-yl]-ethanone] | 31.2 | 138
N#CCC(=O)N1CCN(c2cccc3c2ccn3-c2ccnc(N[C@H]3CCC[C@H](O)C3)n2)CC1 [Compound I-34, 3-(4-{1-[2-((1S,3S)-3-Hydroxy-cyclohexylamino)-pyrimidin-4-yl]-1H-indol-4-yl}-piperazin-1-yl)-3-oxo-propionitrile] | – | 89.2
CC(C)(C)OC(=O)NCC(=O)N1CCN(c2cccc3c2ccn3-c2ccnc(N[C@H]3CC[C@H](NS(C)(=O)=O)CC3)n2)CC1 [Compound I-22, [2-(4-{1-[2-(4-Methanesulfonylamino-cyclohexylamino)-pyrimidin-4-yl]-1H-indol-4-yl}-piperazin-1-yl)-2-oxo-ethyl]-carbamic acid tert-butyl ester] | 3.6 | 26.4
CN(C)CC(=O)N1CCN(c2cccc3c2ccn3-c2ccnc(N[C@H]3CC[C@H](NS(C)(=O)=O)CC3)n2)CC1 [Compound I-23, N-[4-(4-{4-[4-(2-Dimethylamino-acetyl)-piperazin-1-yl]-indol-1-yl}-pyrimidin-2-ylamino)-cyclohexyl]-methanesulfonamide] | 378 | 1630
N#CCC(=O)N1CCN(c2cccc3c2ccn3-c2ccnc(N[C@H]3CC[C@H](CO)CC3)n2)CC1 [Compound I-27, 3-(4-{1-[2-(4-Hydroxymethyl-cyclohexylamino)-pyrimidin-4-yl]-1H-indol-4-yl}-piperazin-1-yl)-3-oxo-propionitrile] | – | 12.8
CS(=O)(=O)N[C@H]1CC[C@H](Nc2nccc(-n3ccc4c(N5CCN(C(N)=O)CC5)cccc43)n2)CC1 [Compound I-7, 4-{1-[2-(4-Methanesulfonylamino-cyclohexylamino)-pyrimidin-4-yl]-1H-indol-4-yl}-piperazine-1-carboxylic acid amide] | – | 86.1

More lines, now with the values ahead:

IC50 (Human JNK1α1) [nM] | IC50 (Human JNK2α2) [nM] | Structure (SMILES)
12.4 | 25.7 | CC(=O)N1CCN(c2cccc3c2c(C(N)=O)cn3-c2ccnc(N[C@H]3CC[C@H](O)CC3)n2)CC1 [Compound I-63, 4-(4-Acetyl-piperazin-1-yl)-1-[2-(4-hydroxy-cyclohexylamino)-pyrimidin-4-yl]-1H-indole-3-carboxylic acid amide]
9.2 | 18.7 | CCN1CCN(C(=O)[C@H]2CC[C@H](Nc3nccc(-n4ccc5c(N6CCN(C(=O)CC#N)CC6)cccc54)n3)CC2)CC1 [Compound I-56, 3-[4-(1-{2-[4-(4-Ethyl-piperazine-1-carbonyl)-cyclohexylamino]-pyrimidin-4-yl}-1H-indol-4-yl)-piperazin-1-yl]-3-oxo-propionitrile]
48.4 | 4030 | CC(=O)N1CCN(c2cccc3c2ccn3-c2ccnc(NC3CCCCC3)n2)CC1 [Compound I-37, 1-{4-[1-(2-Cyclohexylamino-pyrimidin-4-yl)-1H-indol-4-yl]-piperazin-1-yl}-ethanone]
2.4 | 13.6 | CS(=O)(=O)C[C@H]1CC[C@H](Nc2nccc(-n3ccc4c(N5CCN(C(=O)CC#N)CC5)cccc43)n2)CC1 [Compound I-42, 3-(4-{1-[2-(4-Methanesulfonylmethyl-cyclohexylamino)-pyrimidin-4-yl]-1H-indol-4-yl}-piperazin-1-yl)-3-oxo-propionitrile]
– | 19.2 | CS(=O)(=O)N(CCO)[C@H]1CC[C@H](Nc2nccc(-n3ccc4c(N5CCN(C(=O)CC#N)CC5)cccc43)n2)CC1 [Compound I-44, N-[4-(4-{4-[4-(2-Cyano-acetyl)-piperazin-1-yl]-indol-1-yl}-pyrimidin-2-ylamino)-cyclohexyl]-N-(2-hydroxy-ethyl)-methanesulfonamide]
– | 13.9 | CC(=O)N1CCN(c2cccc3c2c(C(N)=O)cn3-c2ccnc(N[C@H]3CC[C@H](CS(C)(=O)=O)CC3)n2)CC1 [Compound I-64, 4-(4-Acetyl-piperazin-1-yl)-1-[2-(4-methanesulfonylmethyl-cyclohexylamino)-pyrimidin-4-yl]-1H-indole-3-carboxylic acid amide]
– | 35 | COCCO[C@H]1CC[C@H](Nc2nccc(-n3ccc4c(N5CCN(C(=O)CC#N)CC5)cccc43)n2)CC1 [Compound I-40, 3-[4-(1-{2-[4-(2-Methoxy-ethoxy)-cyclohexylamino]-pyrimidin-4-yl}-1H-indol-4-yl)-piperazin-1-yl]-3-oxo-propionitrile]
